Laboratory results published in patent publication US10245261B2, “Substituted indol-5-ol derivatives and their therapeutic applications” (NantBioScience, Inc., priority 2013, dated 2019).

Key:
Test in all cases: KinaseProfiler kinase assay
Assay type in all cases: biochemical
ALK(h) = ALK(h) (Homo sapiens, UniProt Q9UM73)
Method in brief: (§1)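 Kinase activity is followed by incorporation of 33P from [γ-33P]ATP in 8 mM MOPS pH 7.0 with 10 mM Mg acetate and 0.2 mM EDTA over 40 min at room temperature. Inhibition is scaled between no-kinase and phosphopeptide control wells.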

ARK5(h) = ARK5(h) (Homo sapiens, UniProt O60285)
Method in brief: as §1

Abl(m) = Abl(m) (Mus musculus, UniProt P00520)
Method in brief: as §1

CHK2(I157T)(h) = CHK2(I157T)(h) (Homo sapiens, UniProt O96017, I157T)
Method in brief: as §1

CK2(h) = CK2(h) (Homo sapiens, UniProt P68400)
Method in brief: as §1

CaMKIδ(h) = CaMKIδ(h) (Homo sapiens, UniProt Q8IU85)
Method in brief: as §1

GRK6(h) = GRK6(h) (Homo sapiens, UniProt P43250)
Method in brief: as §1

GRK7(h) = GRK7(h) (Homo sapiens, UniProt Q8WTQ7)
Method in brief: as §1

Hck(h) activated = Hck(h) activated (Homo sapiens, UniProt P08631)
Method in brief: as §1

JAK3(h) = JAK3(h) (Homo sapiens, UniProt P52333)
Method in brief: as §1

Lck(h) activated = Lck(h) activated (Homo sapiens, UniProt P06239)
Method in brief: as §1

MSK1(h) = MSK1(h) (Homo sapiens, UniProt O75582)
Method in brief: as §1

MSK2(h) = MSK2(h) (Homo sapiens, UniProt O75676)
Method in brief: as §1

NEK2(h) = NEK2(h) (Homo sapiens, UniProt P51955)
Method in brief: as §1

PDGFRβ(h) = PDGFRβ(h) (Homo sapiens, UniProt P09619)
Method in brief: as §1

PKCβI(h) = PKCβI(h) (Homo sapiens, UniProt P05771)
Method in brief: as §1

PKCη(h) = PKCη(h) (Homo sapiens, UniProt P24723)
Method in brief: as §1

PKD2(h) = PKD2(h) (Homo sapiens, UniProt Q9BZL6)
Method in brief: as §1

Plk3(h) = Plk3(h) (Homo sapiens, UniProt Q9H4B4)
Method in brief: as §1

ROCK-I(h) = ROCK-I(h) (Homo sapiens, UniProt Q13464)
Method in brief: as §1

ROCK-II(r) = ROCK-II(r) (Rattus norvegicus, UniProt Q62868)
Method in brief: as §1

Rsk4(h) = Rsk4(h) (Homo sapiens, UniProt Q9UK32)
Method in brief: as §1

SGK(h) = SGK(h) (Homo sapiens, UniProt O00141)
Method in brief: as §1

SGK3(h) = SGK3(h) (Homo sapiens, UniProt Q96BR1)
Method in brief: as §1

SIK(h) = SIK(h) (Homo sapiens, UniProt P57059)
Method in brief: as §1

STK33(h) = STK33(h) (Homo sapiens, UniProt Q9BYT3)
Method in brief: as §1

Src(1-530)(h) = biological target: T1, Src(1-530)(h) (Homo sapiens, UniProt P12931)
T1 construct: Src(1-530)(h)
Method in brief: as §1

Tie2 (h) = Tie2 (h) (Homo sapiens, UniProt Q02763)
Method in brief: as §1

Tie2(Y897S)(h) = Tie2(Y897S)(h) (Homo sapiens, UniProt Q02763, Y897S)
Method in brief: as §1

TrkA(h) = TrkA(h) (Homo sapiens, UniProt P04629)
Method in brief: as §1

Yes(h) = Yes(h) (Homo sapiens, UniProt P07947)
Method in brief: as §1

eEF-2K(h) = eEF-2K(h) (Homo sapiens, UniProt O00418)
Method in brief: as §1

PKCη(h), sequence (P24723 whole entry): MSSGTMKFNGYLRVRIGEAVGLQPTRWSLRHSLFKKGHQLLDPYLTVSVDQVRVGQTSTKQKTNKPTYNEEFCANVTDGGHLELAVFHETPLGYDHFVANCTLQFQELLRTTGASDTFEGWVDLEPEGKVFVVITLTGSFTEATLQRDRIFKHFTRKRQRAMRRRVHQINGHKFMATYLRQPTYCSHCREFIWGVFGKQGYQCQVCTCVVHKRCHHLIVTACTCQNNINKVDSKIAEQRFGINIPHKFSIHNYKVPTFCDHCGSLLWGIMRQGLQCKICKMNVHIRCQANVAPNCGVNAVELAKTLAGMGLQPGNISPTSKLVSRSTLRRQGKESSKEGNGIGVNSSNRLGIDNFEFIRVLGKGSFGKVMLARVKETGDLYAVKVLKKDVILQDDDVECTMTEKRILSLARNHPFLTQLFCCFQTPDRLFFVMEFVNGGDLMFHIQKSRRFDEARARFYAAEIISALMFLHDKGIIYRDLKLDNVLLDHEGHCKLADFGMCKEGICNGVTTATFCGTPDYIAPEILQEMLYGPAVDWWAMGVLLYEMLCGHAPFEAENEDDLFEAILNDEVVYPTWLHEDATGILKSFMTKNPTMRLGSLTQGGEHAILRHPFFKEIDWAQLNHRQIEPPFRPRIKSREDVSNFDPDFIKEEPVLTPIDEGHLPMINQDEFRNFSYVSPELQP
Rsk4(h), sequence (Q9UK32 whole entry): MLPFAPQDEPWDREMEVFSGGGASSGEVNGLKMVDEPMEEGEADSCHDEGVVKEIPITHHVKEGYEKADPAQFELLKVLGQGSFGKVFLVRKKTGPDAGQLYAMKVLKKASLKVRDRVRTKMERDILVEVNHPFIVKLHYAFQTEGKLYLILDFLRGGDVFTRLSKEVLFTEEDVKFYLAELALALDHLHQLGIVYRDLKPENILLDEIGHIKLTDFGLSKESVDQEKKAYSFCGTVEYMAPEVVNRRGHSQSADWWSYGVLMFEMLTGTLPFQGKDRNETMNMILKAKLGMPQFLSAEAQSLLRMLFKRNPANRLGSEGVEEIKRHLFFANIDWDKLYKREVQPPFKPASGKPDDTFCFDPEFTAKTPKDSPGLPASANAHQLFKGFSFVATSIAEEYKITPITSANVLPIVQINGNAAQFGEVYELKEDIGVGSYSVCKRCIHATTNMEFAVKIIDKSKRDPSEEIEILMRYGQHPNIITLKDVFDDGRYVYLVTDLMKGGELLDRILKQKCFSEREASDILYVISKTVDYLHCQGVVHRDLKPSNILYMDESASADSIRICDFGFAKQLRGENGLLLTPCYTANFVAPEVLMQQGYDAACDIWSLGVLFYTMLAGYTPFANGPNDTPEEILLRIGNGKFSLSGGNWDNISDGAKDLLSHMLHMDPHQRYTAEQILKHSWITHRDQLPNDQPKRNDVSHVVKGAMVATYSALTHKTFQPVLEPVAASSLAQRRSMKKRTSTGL
CHK2(I157T)(h), sequence (O96017 whole entry I157T): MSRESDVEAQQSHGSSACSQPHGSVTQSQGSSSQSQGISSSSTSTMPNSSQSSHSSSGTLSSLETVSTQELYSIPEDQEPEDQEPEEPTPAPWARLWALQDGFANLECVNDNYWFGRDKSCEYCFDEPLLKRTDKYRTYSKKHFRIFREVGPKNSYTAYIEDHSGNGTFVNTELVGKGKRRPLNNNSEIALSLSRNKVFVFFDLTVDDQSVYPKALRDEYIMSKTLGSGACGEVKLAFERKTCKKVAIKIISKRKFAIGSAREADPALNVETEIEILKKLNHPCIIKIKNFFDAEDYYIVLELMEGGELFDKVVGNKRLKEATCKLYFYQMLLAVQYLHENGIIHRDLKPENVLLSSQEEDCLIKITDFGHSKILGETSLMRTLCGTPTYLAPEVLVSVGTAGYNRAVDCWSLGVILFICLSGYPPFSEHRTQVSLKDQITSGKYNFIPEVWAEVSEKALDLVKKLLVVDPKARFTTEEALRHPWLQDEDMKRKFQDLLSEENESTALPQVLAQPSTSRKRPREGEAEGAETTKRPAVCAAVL
ROCK-I(h), sequence (Q13464 whole entry): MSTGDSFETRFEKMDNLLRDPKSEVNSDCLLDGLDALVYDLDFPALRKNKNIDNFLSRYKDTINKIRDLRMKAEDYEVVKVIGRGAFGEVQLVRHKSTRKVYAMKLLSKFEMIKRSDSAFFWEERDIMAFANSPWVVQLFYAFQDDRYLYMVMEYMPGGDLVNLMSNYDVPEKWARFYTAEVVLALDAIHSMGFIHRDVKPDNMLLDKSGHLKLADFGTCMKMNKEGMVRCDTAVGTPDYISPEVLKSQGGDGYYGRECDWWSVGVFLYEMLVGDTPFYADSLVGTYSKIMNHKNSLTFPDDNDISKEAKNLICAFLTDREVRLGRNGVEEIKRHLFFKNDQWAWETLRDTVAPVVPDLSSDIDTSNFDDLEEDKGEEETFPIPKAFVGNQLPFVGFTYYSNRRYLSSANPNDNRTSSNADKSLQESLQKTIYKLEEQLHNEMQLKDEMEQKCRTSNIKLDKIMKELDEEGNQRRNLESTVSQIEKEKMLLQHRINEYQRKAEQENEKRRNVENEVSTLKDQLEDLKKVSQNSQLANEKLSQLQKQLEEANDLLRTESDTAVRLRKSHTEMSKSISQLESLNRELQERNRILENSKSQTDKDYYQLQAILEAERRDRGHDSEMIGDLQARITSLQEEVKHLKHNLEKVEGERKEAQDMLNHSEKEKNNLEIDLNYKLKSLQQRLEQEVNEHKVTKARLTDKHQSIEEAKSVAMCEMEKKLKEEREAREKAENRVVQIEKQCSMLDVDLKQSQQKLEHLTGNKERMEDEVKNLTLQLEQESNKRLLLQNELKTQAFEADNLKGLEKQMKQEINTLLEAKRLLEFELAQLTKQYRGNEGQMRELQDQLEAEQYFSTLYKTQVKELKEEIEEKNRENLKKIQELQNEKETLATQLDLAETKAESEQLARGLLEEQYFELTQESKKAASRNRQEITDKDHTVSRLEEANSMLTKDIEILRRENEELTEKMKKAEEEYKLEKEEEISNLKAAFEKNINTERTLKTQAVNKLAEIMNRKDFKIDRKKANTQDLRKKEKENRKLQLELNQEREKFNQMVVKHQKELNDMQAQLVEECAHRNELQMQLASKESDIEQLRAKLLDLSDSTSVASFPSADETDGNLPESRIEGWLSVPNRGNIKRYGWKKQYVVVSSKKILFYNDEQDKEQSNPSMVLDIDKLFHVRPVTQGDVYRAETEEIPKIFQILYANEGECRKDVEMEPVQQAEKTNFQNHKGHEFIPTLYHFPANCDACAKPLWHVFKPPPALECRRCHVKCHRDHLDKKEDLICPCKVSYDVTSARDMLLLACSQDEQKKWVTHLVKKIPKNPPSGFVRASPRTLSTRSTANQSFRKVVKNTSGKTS
PDGFRβ(h), sequence (P09619 33-1106): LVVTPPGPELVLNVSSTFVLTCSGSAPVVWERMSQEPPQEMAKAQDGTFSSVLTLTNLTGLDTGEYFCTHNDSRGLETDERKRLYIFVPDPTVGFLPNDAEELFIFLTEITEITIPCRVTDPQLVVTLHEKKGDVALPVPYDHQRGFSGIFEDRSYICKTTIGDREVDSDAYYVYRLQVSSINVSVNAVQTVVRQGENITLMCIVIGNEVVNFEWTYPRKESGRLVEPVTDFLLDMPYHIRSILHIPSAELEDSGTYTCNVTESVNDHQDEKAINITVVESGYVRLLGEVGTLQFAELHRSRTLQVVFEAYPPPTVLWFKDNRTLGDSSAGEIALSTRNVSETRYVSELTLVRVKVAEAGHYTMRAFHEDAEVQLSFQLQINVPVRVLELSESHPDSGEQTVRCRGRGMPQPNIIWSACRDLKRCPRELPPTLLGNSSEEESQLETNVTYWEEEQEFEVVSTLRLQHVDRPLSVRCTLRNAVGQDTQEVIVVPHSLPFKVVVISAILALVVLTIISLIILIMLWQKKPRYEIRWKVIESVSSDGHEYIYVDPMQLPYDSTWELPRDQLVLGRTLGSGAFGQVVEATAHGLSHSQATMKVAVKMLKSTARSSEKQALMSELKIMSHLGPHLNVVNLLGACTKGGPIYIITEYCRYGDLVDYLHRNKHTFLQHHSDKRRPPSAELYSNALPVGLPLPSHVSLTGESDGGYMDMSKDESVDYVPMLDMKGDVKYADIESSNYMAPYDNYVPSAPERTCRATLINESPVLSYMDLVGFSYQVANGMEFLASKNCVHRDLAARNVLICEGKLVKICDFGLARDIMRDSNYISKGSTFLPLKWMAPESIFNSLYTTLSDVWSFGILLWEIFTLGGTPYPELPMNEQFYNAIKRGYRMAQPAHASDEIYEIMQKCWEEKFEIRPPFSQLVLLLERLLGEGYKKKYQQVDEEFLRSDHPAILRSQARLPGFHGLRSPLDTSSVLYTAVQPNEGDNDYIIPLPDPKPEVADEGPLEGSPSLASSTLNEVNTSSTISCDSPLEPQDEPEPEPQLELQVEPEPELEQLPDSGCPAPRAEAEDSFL
Plk3(h), sequence (Q9H4B4 whole entry): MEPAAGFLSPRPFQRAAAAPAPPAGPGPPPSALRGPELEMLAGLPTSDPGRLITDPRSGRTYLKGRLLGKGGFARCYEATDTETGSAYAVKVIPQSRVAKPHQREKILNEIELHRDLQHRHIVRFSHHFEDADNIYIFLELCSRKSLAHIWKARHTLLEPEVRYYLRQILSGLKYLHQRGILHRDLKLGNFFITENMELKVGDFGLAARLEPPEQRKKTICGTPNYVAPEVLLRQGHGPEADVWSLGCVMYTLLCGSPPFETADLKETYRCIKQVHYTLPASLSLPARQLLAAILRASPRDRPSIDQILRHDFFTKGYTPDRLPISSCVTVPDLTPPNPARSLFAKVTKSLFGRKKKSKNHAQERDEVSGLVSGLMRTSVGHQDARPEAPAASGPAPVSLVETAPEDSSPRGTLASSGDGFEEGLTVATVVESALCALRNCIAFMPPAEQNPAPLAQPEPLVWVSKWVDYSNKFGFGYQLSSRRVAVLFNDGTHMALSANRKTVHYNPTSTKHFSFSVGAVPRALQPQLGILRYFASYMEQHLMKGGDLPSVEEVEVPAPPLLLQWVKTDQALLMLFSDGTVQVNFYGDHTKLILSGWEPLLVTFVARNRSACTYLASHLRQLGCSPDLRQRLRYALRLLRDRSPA

Compound	inhibition at 0.1 µM (ALK(h)) [%]	inhibition at 0.1 µM (ARK5(h)) [%]	inhibition at 0.1 µM (Abl(m)) [%]	inhibition at 0.1 µM (CHK2(I157T)(h)) [%]	inhibition at 0.1 µM (CK2(h)) [%]	inhibition at 0.1 µM (CaMKIδ(h)) [%]	inhibition at 0.1 µM (GRK6(h)) [%]	inhibition at 0.1 µM (GRK7(h)) [%]	inhibition at 0.1 µM (Hck(h) activated) [%]	inhibition at 0.1 µM (JAK3(h)) [%]	inhibition at 0.1 µM (Lck(h) activated) [%]	inhibition at 0.1 µM (MSK1(h)) [%]	inhibition at 0.1 µM (MSK2(h)) [%]	inhibition at 0.1 µM (NEK2(h)) [%]	inhibition at 0.1 µM (PDGFRβ(h)) [%]	inhibition at 0.1 µM (PKCβI(h)) [%]	inhibition at 0.1 µM (PKCη(h)) [%]	inhibition at 0.1 µM (PKD2(h)) [%]	inhibition at 0.1 µM (Plk3(h)) [%]	inhibition at 0.1 µM (ROCK-I(h)) [%]	also measured
Cc1cc2c(F)c(Oc3nc(Nc4cc(C5CC5)[nH]n4)cc(N4CCN(C)CC4)n3)ccc2[nH]1 [Compound 10]	87	99	101	30	8	6	-5	-4	90	86	97	96	-7	6	28	2	-16	-5	1	-15	inhibition at 0.1 µM (ROCK-II(r)): 13%; inhibition at 0.1 µM (Rsk4(h)): 36%; inhibition at 0.1 µM (SGK(h)): -38%; inhibition at 0.1 µM (SGK3(h)): -5%; inhibition at 0.1 µM (SIK(h)): 50%; inhibition at 0.1 µM (STK33(h)): 8%; inhibition at 0.1 µM (Src(1-530)(h)): 101%; inhibition at 0.1 µM (Tie2 (h)): 100%; inhibition at 0.1 µM (Tie2(Y897S)(h)): 91%; inhibition at 0.1 µM (TrkA(h)): 102%; inhibition at 0.1 µM (Yes(h)): 99%; inhibition at 0.1 µM (eEF-2K(h)): -15%
Cc1cc2c(F)c(Oc3nc(Nc4cc(C5CC5)[nH]n4)cc(N4CCNCC4)n3)ccc2[nH]1 [Compound 11, N-(5-cyclopropyl-1H-pyrazol-3-yl)-2-((4-fluoro-2-methyl-1H-indol-5-yl)oxy)-6-(piperazin-1-yl)pyrimidin-4-amine]	86	95	104	-1	5	5	-14	0	84	86	100	9	-5	-7	24	5	-7	-1	1	-15	inhibition at 0.1 µM (ROCK-II(r)): 16%; inhibition at 0.1 µM (Rsk4(h)): 35%; inhibition at 0.1 µM (SGK(h)): -19%; inhibition at 0.1 µM (SGK3(h)): 4%; inhibition at 0.1 µM (SIK(h)): 56%; inhibition at 0.1 µM (STK33(h)): -4%; inhibition at 0.1 µM (Src(1-530)(h)): 101%; inhibition at 0.1 µM (Tie2 (h)): 98%; inhibition at 0.1 µM (Tie2(Y897S)(h)): 93%; inhibition at 0.1 µM (TrkA(h)): 100%; inhibition at 0.1 µM (Yes(h)): 101%; inhibition at 0.1 µM (eEF-2K(h)): 10%
